Converted amounts (≈) assume the structure as drawn. One block for each compound: values may come before it.
Tests used:
Test in all cases: ≥ marks a high value that may be exact or a test limit, other limits are often not marked, values filed in µg/mL are converted to µM
Bacillus subtilis 168 = test system: Bacillus subtilis 168
[1] = test system: Escherichia coli BNCC 133264
Escherichia coli K-12 = test system: Escherichia coli K-12
Escherichia coli = test system: Escherichia coli
Listeria monocytogenes = test system: Listeria monocytogenes
[2] = test system: Pseudomonas aeruginosa BNCC 125486
[3] = test system: Pseudomonas aeruginosa PAO1
[4] = test system: Staphylococcus aureus BNCC 186335
[5] = test system: Staphylococcus aureus USA 300
Staphylococcus aureus = test system: Staphylococcus aureus
[6] = test system: Candida albicans ATCC 90028
[7] = test system: Enterobacter cloacae HNTCC 53001
[8] = test system: Enterococcus faecalis ATCC 29212
[9] = test system: Escherichia coli ATCC 25922
[10] = test system: Klebsiella pneumoniae KK3 9904
[11] = test system: Proteus mirabilis ATCC 25933
[12] = test system: Pseudomonas aeruginosa ATCC 27853
[13] = test system: Staphylococcus aureus NCTC 8325
[14] = test system: Staphylococcus aureus T7/20
[15] = test system: Staphylococcus epidermidis RP62A
[16] = test system: Acinetobacter baumannii NM109
[17] = test system: Acinetobacter baumannii NM124
[18] = test system: Acinetobacter baumannii NM35
[19] = test system: Acinetobacter baumannii NM75
[20] = test system: Acinetobacter baumannii NM8
[21] = test system: Cutibacterium acnes ATCC 11828
[22] = test system: Cutibacterium acnes ATCC 15725
[23] = test system: Cutibacterium acnes ATCC 18380
[24] = test system: Cutibacterium acnes ATCC 29903
[25] = test system: Cutibacterium acnes ATCC 31766
[26] = test system: Cutibacterium acnes ATCC 32548
[27] = test system: Cutibacterium acnes ATCC 33257
[28] = test system: Cutibacterium acnes ATCC 50247
[29] = test system: Escherichia coli ATCC 25726
[30] = test system: Staphylococcus aureus ATCC 25923
[31] = test system: Agrobacterium tumefaciens ATCC 15955
Escherichia coli 45849 = test system: Escherichia coli 45849
Escherichia coli BL21AI = test system: Escherichia coli BL21AI
Escherichia coli D31 = test system: Escherichia coli D31
[32] = test system: Klebsiella pneumoniae 123132
[33] = test system: Klebsiella pneumoniae K6 ATCC 700603
[34] = test system: Micrococcus luteus ATCC 10240
[35] = test system: Salmonella enterica subsp. enterica serovar Typhi S5
[36] = test system: Salmonella enterica subsp. enterica serovar Typhimurium ATCC 700408
[37] = test system: Bacillus cereus ATCC 11778
[38] = test system: Escherichia coli ATCC 35218
Escherichia coli O157 = test system: Escherichia coli O157
[39] = test system: Micrococcus luteus ATCC 9341
[40] = test system: Pseudomonas aeruginosa ATCC 9027
[41] = test system: Salmonella enterica subsp. arizonae ATCC 13314
[42] = test system: Staphylococcus epidermidis ATCC 12228
[43] = test system: Streptococcus pyogenes ATCC 19615

MIC (Bacillus subtilis 168): ≥ 100 µM | MIC [1]: ≥ 79.5 µM | MIC (Escherichia coli K-12): ≥ 100 µM | MIC (Escherichia coli): > 79.5 µM | MIC (Listeria monocytogenes): 4.97 µM (≈ 8 µg/mL) | MIC [2]: ≥ 79.5 µM | MIC [3]: > 100 µM | MIC [4]: ≥ 39.8 µM | MIC [5]: 3.1 µM (≈ 4.99 µg/mL) | MIC (Staphylococcus aureus): 39.8 µM (≈ 64 µg/mL)
SMILES: CC[C@H](C)[C@H](NC(=O)[C@H](CCCCN)NC(=O)[C@H](CCCN=C(N)N)NC(=O)[C@@H](NC(=O)[C@H](CC(C)C)NC(=O)[C@H](CCCCN)NC(=O)[C@H](CC(C)C)NC(=O)[C@@H](NC(=O)[C@H](CCCCN)NC(=O)CNC(=O)[C@H](Cc1ccccc1)NC(=O)[C@@H](N)Cc1ccccc1)C(C)C)[C@@H](C)CC)C(=O)N[C@@H](Cc1ccccc1)C(N)=O [FFGKVLKLIRKIF]

MIC [6]: ≥ 50 µM | MIC [7]: ≥ 50 µM | MIC [8]: 50 µM (≈ 111 µg/mL) | MIC [9]: 25 µM (≈ 55.7 µg/mL) | MIC [10]: ≥ 100 µM | MIC [11]: ≥ 100 µM | MIC [12]: 50 µM (≈ 111 µg/mL) | MIC [13]: 25 µM (≈ 55.7 µg/mL) | MIC [14]: 25 µM (≈ 55.7 µg/mL) | MIC [15]: 12.5 µM (≈ 27.8 µg/mL)
SMILES: CC[C@H](C)[C@H](NC(=O)[C@H](CCCCN)NC(=O)[C@H](CO)NC(=O)[C@@H](NC(=O)[C@H](CC(C)C)NC(=O)[C@H](CO)NC(=O)[C@@H]1CCCN1C(=O)[C@H](CC(C)C)NC(=O)[C@H](C)NC(=O)[C@H](CO)NC(=O)[C@H](C)NC(=O)[C@H](CC(C)C)NC(=O)[C@H](C)NC(=O)CNC(=O)[C@@H](NC(=O)[C@@H](NC(=O)[C@H](CO)NC(=O)CNC(=O)[C@H](CC(C)C)NC(=O)[C@@H](N)Cc1ccccc1)[C@@H](C)CC)C(C)C)[C@@H](C)CC)C(=O)N[C@@H](CCCN=C(N)N)C(=O)N[C@@H](CC(N)=O)C(N)=O [FLGSIVGALASALPSLISKIRN]

MIC [16]: 12.5 µM (≈ 23.5 µg/mL) | MIC [17]: 12.5 µM (≈ 23.5 µg/mL) | MIC [18]: 6 µM (≈ 11.3 µg/mL) | MIC [19]: 12.5 µM (≈ 23.5 µg/mL) | MIC [20]: 6 µM (≈ 11.3 µg/mL) | MIC [6]: ≥ 50 µM | MIC [21]: 12.5 µM (≈ 23.5 µg/mL) | MIC [22]: 12.5 µM (≈ 23.5 µg/mL) | MIC [23]: ≥ 50 µM | MIC [24]: 25 µM (≈ 47.1 µg/mL) | MIC [25]: 6 µM (≈ 11.3 µg/mL) | MIC [26]: 12.5 µM (≈ 23.5 µg/mL) | MIC [27]: 12.5 µM (≈ 23.5 µg/mL) | MIC [28]: 6 µM (≈ 11.3 µg/mL) | MIC [29]: 12.5 µM (≈ 23.5 µg/mL) | MIC [30]: 12.5 µM (≈ 23.5 µg/mL)
SMILES: CC[C@H](C)[C@H](NC(=O)[C@@H](NC(=O)CN)C(C)C)C(=O)N[C@@H](CCCCN)C(=O)N[C@@H](CO)C(=O)N[C@H](C(=O)N[C@@H](CC(C)C)C(=O)N[C@@H](CCCCN)C(=O)NCC(=O)N[C@H](C(=O)N[C@@H](C)C(=O)N[C@@H](CCCCN)C(=O)N[C@H](C(=O)N[C@H](C(=O)N[C@@H](C)C(=O)N[C@@H](CC(C)C)C(=O)NCC(=O)N[C@@H](CCSC)C(=O)N[C@@H](CC(C)C)C(N)=O)C(C)C)[C@@H](C)O)C(C)C)C(C)C [GVIKSVLKGVAKTVALGML]

MIC [31]: 0.298 µM (≈ 0.65 µg/mL) | MIC (Escherichia coli 45849): 0.115 µM (≈ 0.25 µg/mL) | MIC (Escherichia coli BL21AI): 1.27 µM (≈ 2.76 µg/mL) | MIC (Escherichia coli D31): 3.67 µM (≈ 8 µg/mL) | MIC [32]: 1.84 µM (≈ 4 µg/mL) | MIC [33]: 3.67 µM (≈ 8 µg/mL) | MIC [34]: 0.634 µM (≈ 1.38 µg/mL) | MIC [35]: 0.459 µM (≈ 1 µg/mL) | MIC [36]: 0.162 µM (≈ 0.353 µg/mL)
SMILES: CC[C@H](C)[C@H](NC(=O)[C@H](Cc1ccc(O)cc1)NC(=O)[C@@H](NC(=O)[C@@H]1CCCN1C(=O)[C@H](CCCN=C(N)N)NC(=O)[C@H](CC(N)=O)NC(=O)[C@H](CC(N)=O)NC(=O)[C@@H](N)CCCCN)C(C)C)C(=O)N1CCC[C@H]1C(=O)N[C@@H](CCCCN)C(=O)N1CCC[C@H]1C(=O)N[C@@H](CCCN=C(N)N)C(=O)N1CCC[C@H]1C(=O)N1CCC[C@H]1C(=O)N[C@@H](Cc1cnc[nH]1)C(=O)N1CCC[C@H]1C(=O)N[C@@H](CCCN=C(N)N)C(=O)N[C@@H](CC(C)C)C(N)=O [KNNRPVYIPKPRPPHPRL]

MIC [37]: ≥ 150 µM | MIC [8]: > 150 µM | MIC [9]: > 150 µM | MIC [38]: ≥ 150 µM | MIC (Escherichia coli O157): ≥ 150 µM | MIC [39]: ≥ 150 µM | MIC [40]: > 150 µM | MIC [41]: ≥ 150 µM | MIC [42]: > 150 µM | MIC [43]: ≥ 150 µM
SMILES: CC(C)C[C@H](NC(=O)[C@H](CC(C)C)NC(=O)[C@H](CCC(N)=O)NC(=O)[C@H](Cc1ccc(O)cc1)NC(=O)[C@H](CCCN=C(N)N)NC(=O)CNC(=O)[C@H](C)NC(=O)[C@H](C)NC(=O)[C@@H](NC(=O)[C@H](CO)NC(=O)[C@H](Cc1ccc(O)cc1)NC(=O)[C@@H](NC(=O)[C@H](CCCCN)NC(=O)[C@H](Cc1ccc(O)cc1)NC(=O)[C@H](CCCN=C(N)N)NC(=O)[C@@H]1CCCN1C(=O)[C@H](CC(C)C)NC(=O)[C@H](Cc1ccc(O)cc1)NC(=O)[C@@H](NC(=O)[C@@H](N)CCCCN)C(C)C)C(C)C)[C@@H](C)O)C(N)=O [KVYLPRYKVYSTAAGRYQLL]
